Columns and labels:
TNF-α [1] = assay: LPS-induced TNF-α release in BALB/c mice; format: in vivo; settings: Mus musculus, 100 mg/kg po, LPS 1 mg/kg i.p. 1 h after dosing, plasma TNF-α 1.5 h after LPS, read-out: % inhibition (Mean ± SE*)
Method: The protocol described by Fukuda T. et al (Eur. J. Pharmacol., 391: 317-320, 2000) was followed. BALB/c mice were divided into groups of five to ten each. The test compound, suspended in Tween 80-0.5% carboxy methylcellulose (CMC), with a few drops of Tween 80 as wetting agent if necessary, was administered orally (p.o.) to the mice. One hour later, LPS dissolved in sterile, pyrogen-free saline was administered i.p. at the dose of 1 mg/kg. The negative control group received saline as an i.p injection, while all other groups received LPS. Rolipram (30 mg/kg) was used as the standard drug. One and a half hours later, blood was collected in heparin. Plasma was separated by centrifugation at 13000 rpm (Heraeus Biofuge Pico Centrifuge) at room temperature, aliquoted and stored at −70° C. until analysis.
TNF-α levels in the blood samples were assayed using ELISA and % inhibition of TNF-α release compared to the control group was calculated.

[2] = tested on: peripheral blood mononuclear cells (PBMC); assay: Cytotoxicity of test compounds in PBMC, cell viability by MTS reagent; format: cell-based, human
Method: (§1) TNF-α production by LPS in peripheral blood mononuclear cells (PBMC) was measured according to the method described by Henry et al (J. Bioorg. Med. Chem. Lett., 8: 3335-3340, 1998). Briefly, blood was collected from healthy donors into Potassium EDTA vacutainer tubes (Vacutest Plast/Becton Dickinson). PBMC were isolated using gradient centrifugation in Ficoll-Paque solution (Pharmacia). Isolated PBMC were suspended in RPMI 1640 culture medium (Gibco BRL, Pasley, UK) containing 10% fetal bovine serum (FBS) (Hyclone, Utah, USA), 100 U/ml penicillin (Sigma Chemical Co. St Louis, Mo.) and 100 μg/ml streptomycin (Sigma Chemical Co. St Louis, Mo.). The cell concentration was adjusted to 1×10^6 cells/ml. The viability as determined by trypan blue dye exclusion was uniformly ≧98%. The cell suspension (100 μl) was added to the wells of a 96-well culture plate. Following cell plating, 79 μl of the culture medium and 1 μl of eight different concentrations of the test compounds (final concentration 0.03, 0.1, 0.3, 1, 3, 10, 30, 100 μM) dissolved in DMSO (dimethylsulfoxide, Sigma, Mo., USA) were added to the cells. The final concentration of DMSO was adjusted to 0.5%. The appropriate DMSO concentration was used as control. Rolipram (30 μM) was used as a standard compound. The plates were incubated for 30 min at 37° C. in an atmosphere of 5% CO2. Finally, 20 μl (10 μg/ml) per well of LPS, (Escherchia coli 0127:B8, Sigma Chemical Co., St. Louis, Mo.) was added, for a final concentration of 1 μg/ml. The plates were incubated at 37° C. for 4.5 h in an atmosphere of 5% CO2. To determine the cytotoxicity of the test compounds, the cell viability was assessed using MTS (3-(4,5-dimethylthiazol-2-yl)-5-(3-carboxymethoxyphenyl)-2-(4-sulfonyl)-2H-tetrazolium) reagent (Promega) after 4.5 h of incubation. Supernatants were harvested and assayed for TNF-α by ELISA as described by the manufacturer (R&D Systems, MN, BD Biosciences Pharmingen) or by cytotoxicity bioassay in L929 cells. The 50% inhibitory concentration (IC50) values were calculated by a nonlinear regression method using GraphPad software (Prism 3.03)

TNF-α [3] = assay: LPS-induced TNF-α production in peripheral blood mononuclear cells (secondary screening); format: cell-based; settings: 4.5 h, TNF-α production in PBMC, LPS 1 μg/ml, ELISA or L929 bioassay
Method: as §1

TNF-α [4] = assay: Whole blood cell culture assay: LPS-induced TNF-α release (primary screening); format: cell-based, human; settings: Homo sapiens, Whole blood cell; test compound 1 μM; diluted whole blood of healthy donors; LPS 1 μg/ml, 4.5 h; vs DMSO control
Method: TNF-α production by lipopolysaccharide (LPS) in whole blood was measured according to the method described by Wilson et al (J. Immunol. Methods, 139: 233-240, 1991). Briefly, blood was collected from healthy donors into potassium EDTA vacutainer tubes (Vacutest Plast/Becton Dickinson) and diluted with RPMI 1640 culture medium (Gibco BRL, Pasley, UK) containing 100 U/ml penicillin and 100 μg/ml streptomycin, (100× solution, Sigma Chemical Co. St Louis, Mo.) with no added serum. The white blood cell count was adjusted to 1×10^6 cells/ml and 100 μl/well of the diluted blood was transferred into 96-well culture plates. Following cell plating, 79 μl of culture medium and 1 μl of the test compounds (final concentration 1 μM) dissolved in DMSO (dimethylsulfoxide, Sigma, Mo., USA) was added to the cells. The final concentration of DMSO was adjusted to 0.5%. 1 μl of vehicle (0.5% DMSO) was used as control. Rolipram (100 μM) was used as a standard compound. The plates were incubated for 30 min at 37° C. in an atmosphere of 5% CO2. Finally, 20 μl (10 μg/ml) per well of LPS (Escherchia coli 0127:B8, Sigma Chemical Co., St. Louis, Mo.) was added, for a final concentration of 1 μg/ml. Plates were incubated at 37° C. for 4.5 h in an atmosphere of 5% CO2. Supernatants were harvested and assayed for TNF-α by ELISA as described by the manufacturer (R&D Systems, MN) or by cytotoxicity bioassay in L929 cells. Percent inhibition of TNF-α release in comparison to the control was calculated.

IC50 (TNF-α [3]) [µM] | melting point | SMILES | inhibition in vivo at 100 mg/kg (TNF-α [1]) [%] | % toxicity (10 μM), 5 h [2] [%] | inhibition at 1 µM (TNF-α [4]) [%]
8.05 ± 1.57 | 170 to 173 °C | COC(=O)c1cc(C)c2c(c1)S(=O)(=O)Cc1cc(N3CCN(C(=O)OCc4ccccc4)CC3)cc(Cl)c1O2 [Example 26, 4-(4-Chloro-8-methoxycarbonyl-6-methyl-10,10-dioxo-10,11-dihydro-5-oxa-10lambda*6*-thia-dibenzo[a,d]cyclohepten-2-yl)-piperazine-1-carboxylic acid benzyl ester] | 68.7 ± 3.68 | 00 | 85
0.51 | 270 °C (dec.) | COC(=O)c1cc(C)c2c(c1)S(=O)(=O)Cc1cc(N3CCCNCC3)cc(Cl)c1O2.Cl [Example 29, 4-Chloro-2-[1,4]diazepan-1yl-6-methyl-10,10-dioxo-10,11-dihydro-5-oxa-10lambda*6*-thia-dibenzo[a,d]cycloheptene-8-carboxylic acid methyl ester hydrochloride] | 79.1 ± 0.91 | 23 | 76

Reference: US7964631B2, “Fused tricyclic compounds as inhibitors of tumor necrosis factor-α” (Piramal Life Sciences Limited, priority 2004, dated 2011)
